Data: US20250213563A1, “SUBSTITUTED PYRIMIDIN-4(3H)-ONES FOR USE IN TREATING CANCER” (NAVIRE PHARMA, INC., priority 2021, published 2025)

Tests used:
[1] = tested on: NCI-H1975-OR CDX model; test: Monotherapy anti-tumor activity, CDX model; assay type: in vivo, immunocompromised mice; details: 100 mg/kg daily orally, 21 to 33 days; EGFR^L858R, EGFR^T790M, EGFR^C797S
Experimental: (§1) In vivo efficacy studies were conducted to evaluate the monotherapy anti-tumor activity of Compound (10b) across a panel of cell line-derived xenograft (CDX) models. […] Significant anti-tumor efficacy was also observed in two CDX models with acquired resistance to EGFR inhibitors.

[2] = tested on: NCI-H358 CDX model; test: Monotherapy anti-tumor activity, CDX model; assay type: in vivo, immunocompromised mice; details: 100 mg/kg daily orally, 21 to 33 days; KRAS^G12C
Experimental: as §1

[3] = tested on: MIA PaCa-2 CDX model; test: Monotherapy anti-tumor activity, CDX model; assay type: in vivo, immunocompromised mice; details: 100 mg/kg daily orally, 21 to 33 days; KRAS^G12C
Experimental: as §1

[4] = tested on: HCC827-ER CDX model; test: Monotherapy anti-tumor activity, CDX model; assay type: in vivo, immunocompromised mice; details: 100 mg/kg daily orally, 21 to 33 days; MET^amp, resistant to EGFR inhibitor
Experimental: as §1

[5] = tested on: KYSE-520 model; test: Monotherapy anti-tumor activity, CDX model; assay type: in vivo, immunocompromised mice; details: 100 mg/kg daily orally, 21 to 33 days; EGFR^amp
Experimental: as §1

[6] = target: T1, full-length human SHP2 wild-type enzyme (Homo sapiens, UniProt Q06124); test: SHP2 enzymatic assay (DiFMUP), full-length enzyme; assay type: biochemical; details: in presence of 1 μM bistyrosylphorphorylated peptide; mean±SD, 34 independent test occasions
T1 construct: full-length human SHP2 (amino acid 1-597); 6xHis (TEV site) (N, cleaved yes); made in house; host or cells: E. coli BL21 (DE3)
Experimental: Protein purification: The recombinant DNA for full-length human SHP2 (amino acid 1-597) or the phosphatase domain of human SHP2 (amino acid Ala237-Ile529) was cloned into a pET30 vector (Sigma #69909-3), which was modified to contain a TEV protease site after the N-terminal 6×His tag. The expression vector was transformed into E. coli BL21 (DE3) (NEB #C2527H). The protein was expressed and purified by the following procedure. Bacterial cells from a 50 mL overnight culture were inoculated in 6 L of terrific broth media. Once the E. coli culture reached an OD600 of 0.7, the temperature was lowered to 18° C. and recombinant protein expression was induced by the addition of 0.5 mM IPTG. After overnight incubation, the cells were harvested by centrifugation at […] for 45 min in a Sorvall Lynx 6000 (Thermo Fisher) centrifuge with F9-6×1000 LEX rotor. The cell pellets were stored at −80° C. until purification. […] The final product was 98% pure as determined by SDS-PAGE. The concentration of SHP2 protein was determined from the absorbance at 280 nm wavelength, using the calculated molar extinction coefficient for SHP2 protein of 72770 M^−1 cm^−1.
SHP2 enzymatic assay: Phosphatase activity of full-length human SHP2 wild-type enzyme or SHP2 phosphatase domain was measured using fluorogenic 6,8-difluoro-4-methylumbelliferyl phosphate (DiFMUP; Molecular Probes #D6567) as the substrate. […]

T1 sequence (Q06124 1-597 isoform Q06124-1): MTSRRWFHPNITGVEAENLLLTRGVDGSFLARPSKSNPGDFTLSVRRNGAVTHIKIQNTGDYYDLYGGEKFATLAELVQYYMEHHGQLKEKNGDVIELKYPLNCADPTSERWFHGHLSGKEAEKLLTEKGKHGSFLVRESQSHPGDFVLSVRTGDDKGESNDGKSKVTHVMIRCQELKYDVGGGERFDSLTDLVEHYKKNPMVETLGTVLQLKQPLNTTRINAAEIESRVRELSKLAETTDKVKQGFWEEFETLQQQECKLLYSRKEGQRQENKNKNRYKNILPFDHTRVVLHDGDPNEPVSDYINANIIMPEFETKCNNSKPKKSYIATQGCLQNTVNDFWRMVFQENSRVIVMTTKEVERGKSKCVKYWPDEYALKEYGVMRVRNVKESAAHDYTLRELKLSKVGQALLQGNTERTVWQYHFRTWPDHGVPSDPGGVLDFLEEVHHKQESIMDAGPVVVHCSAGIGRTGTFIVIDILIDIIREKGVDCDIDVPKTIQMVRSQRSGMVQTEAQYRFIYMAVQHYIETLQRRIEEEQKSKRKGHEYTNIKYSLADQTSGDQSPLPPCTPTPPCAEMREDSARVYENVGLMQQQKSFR

With `Cc1c(N2CCC3(CC2)CO[C@@H](C)[C@H]3N)nc(C)n(-c2cccc(Cl)c2Cl)c1=O` (atropisomer, axis not shown; (Ra)) [Compound (10b), 6-((3S,4S)-4-amino-3-methyl-2-oxa-8-azaspiro[4.5]decan-8-yl)-3-(Ra)-(2,3-dichlorophenyl)-2,5-dimethylpyrimidin-4(3H)-one] the mean tumor regression [1] was 87%, the mean tumor regression [2] was 50% and the “tumor growth inhibition (TGI)” value [3] was 74%. For the same compound, the TGI [4] was 84%, the TGI [5] was 77% and the IC50 [6] was 13.2 ± 10.6 nM.
